Measured values reported in patent US20250027041A1, “COMPOSITION FOR INDUCING TRANSDIFFERENTIATION AND STEM CELLS TREATED THEREWITH” (YJ CERAPEUTICS INC., priority 2021, published 2025).

Tests used:
[1] = test system: UCB-MSCs; assay: Tuj1 immunochemical assay, direct conversion of UCB-MSCs into ciNSC5; assay type: cell-based, human; settings: 30 μM, 5 days
Description: Immunochemical assay was performed to confirm whether UCB-MSCs were transdifferentiated into ciNSC5, Tuj1-positive neural progenitor cells, by the compounds of the present invention, YJ101, YJ102, and YJ103. Specifically, UCB-MSCs were dispensed at 2.1×10^4 cells/well in a 12-well plate containing an 18 mm cover glass (a DMSO control group was dispensed at 3.5×10^3 cells/well). […] The culture medium was removed, washed with PBS, and then fixed with 4% paraformaldehyde at room temperature for 10 minutes. After washed three times with PBS, the cells were permeabilized with PBS-T containing 0.5% Triton X-100 for 10 minutes, washed with PBS-T three times for 10 minutes each, and then blocked with a blocking solution (PBS-T containing 5% BSA and 5% goat serum) for 1 hour. Thereafter, the cells were treated with anti-Tuj1 antibody (Cat. 801201, BioLegend) diluted 1/5000 in a blocking solution and incubated at 4° C. overnight. The next day, the cells were washed 10 times for 10 minutes each with PBS-T, and then treated with anti-mouse IgG-FITC diluted 1/500 in a blocking solution, and incubated for 1 hour in dark conditions. Next, the cells were washed 10 times for 10 minutes each with PBS-T, mounted with a mounting solution containing DAPI, and then observed with a confocal microscope.

[2] = test system: human UCB-MSCs; assay: RNA-seq gene expression; assay type: cell-based; settings: UCB-MSCs treated with YJ102 30 μM for 3 days
Description: The expression gene profile of ciNSC5, which was transdifferentiated from human UCB-MSCs by treating YJ102 for 5 days, was analyzed using genome-wide RNA-seq. Specifically, 1×10^5 human UCB-MSCs were dispensed in a 60 mm culture dish (a control group dispensed at 1.67×10^4), the cells were treated with YJ102 dissolved at 30 mM in DMSO at a concentration of 30 μM (the control group treated with DMSO), and incubated at 37° C. for 2, 3, or 5 days. Thereafter, the culture medium was removed, washed with PBS, and the cells were collected with a scraper and transferred to a microcentrifuge tube. PBS was removed by centrifugation, and the cells were added with 500 μl of a Tri-RNA Reagent and mixed well by pipetting. The mixture was added with 100 μl of chloroform, the tube was mixed by vortexing for 15 seconds, and then centrifuged at 4° C. at 14,000 rpm for 20 minutes. Thereafter, the upper aqueous phase was transferred to a new microcentrifuge tube using a pipette, and added and mixed with 550 μl of isopropanol. The mixture was centrifuged at 14,000 rpm at 4° C. for 20 minutes, the supernatant was discarded, and the pellet was washed with 1 ml of 70% ethanol. […] The pellet was resuspended in 100 μl RNase-free DIW, centrifuged at 14,000 rpm for 10 minutes at 4° C. to remove the supernatant, air-dried, and then the RNA concentration was quantified using nanodrop. […]

[3] = target: T1, CtBP2 (Homo sapiens, UniProt P56545); assay: DARTS assay, CtBP2; assay type: binding
T1 construct: expressed in transfected cells; host or cells: human UCB-MSC, lysate
Description: To identify proteins binding to compounds of the present invention, YJ101 (Chemical Formula 1), YJ102 (Chemical Formula 2), and YJ103 (Chemical Formula 3), in human umbilical cord blood-derived mesenchymal stem cells (UCB-MSCs), DART assay was performed. Specifically, UCB-MSCs (Kang Stem Cell, Passage #6) were dispensed into a 100 mm culture dish and incubated in a KSB-3 medium (Cat. K3901, Kang Stem Cell) containing 10% FBS (Cat. 16000044), and then collected and washed with PBS. Thereafter, the cells were added with an IP50 lysis buffer [50 mM Tris-HCl (pH 7.4), 150 mM NaCl, 2 mM MgCl2, and 0.1% NP40], sonicated, and centrifuged at 13,000×g for 10 minutes at 4° C. to obtain the supernatant. The supernatant was added with 1/10 volume of 10×TNC buffer [500 mM Tris-HCl (pH 8.0), 500 mM NaCl, and 100 mM CaCl2)], and protein concentration was measured using a Bradford method. Thereafter, 9 μl of a cell lysate and 1 μl of YJ101 (20 or M), YJ102 (20 or 30 μM), or YJ103 (20 or 40 μM) were mixed in a microcentrifuge tube and incubated at room temperature for 1 hour. A control group was treated with 1 μl of DMSO. After incubation, 1 μl (1 mg/ml) of Pronase (Cat. 10 165 921 001, Roche) diluted to 1 mg/ml using a 1×TNC buffer was added to the microcentrifuge tube and incubated at 37° C. for 15 minutes. After incubation, ⅕ volume of a 5×SDS-PAGE loading buffer was added, heated at 100° C. for 5 minutes, and then SDS-PAGE and Coomassie blue staining were performed. In addition, UCB-MSCs were dispensed at 4×10^5 cells/ml in a 60 mm culture dish, and after 24 hours, 4 μg of FLAG-CtBP1 or FLAG-CtBP2 DNA was transfected using 4 μl of jetPRIME. After 48 hours, the cells were collected, and proteins were extracted and quantified using the same method as above. DARTS assay was performed with the cell lysate of CtBP1 and Y102 labeled with FLAG, and Western blot assay was performed with a flag antibody (Cat. F3165, Sigma).

overexpressed CtBP2 protection from degradation by pronase (DARTS) ([3]; FLAG-CtBP2 transfected UCB-MSC lysate): protected
CtBP2 protection from degradation by pronase (DARTS) ([3]; endogenous CtBP2, UCB-MSC lysate): protected
binding to CtBP2 ([3]; human UCB-MSC): bound to CtBP1 and CtBP2
Structure (SMILES): CCc1ccc(N(C(=O)COC)c2nc3cc(Cl)ccc3o2)cc1 [YJ102]
direct conversion from UCB-MSCs to ciNSC5 [1]: induced direct conversion
expression of Tuj1 ([1]; UCB-MSC): increased
expression of cell division-related genes (RNA-seq) [2]: decreased
expression of nervous system-related genes (RNA-seq) [2]: increased
